Measured values published in the supplement of paper PMC13386468.

Legend:
Assay in all cases: IC50 for competition of protein binding to Kinobeads
Settings in all cases: assay detail: Kinobeads competition in P. falciparum blood-stage lysate
UniProt C0H4K6 = biological target: UniProt C0H4K6
UniProt C0H4V4 = biological target: UniProt C0H4V4
UniProt C6KT23 = biological target: UniProt C6KT23
UniProt C6KT34 = biological target: UniProt C6KT34
UniProt C6KT64 = biological target: UniProt C6KT64
UniProt C6KT96 = biological target: UniProt C6KT96
UniProt C6S3E1 = biological target: UniProt C6S3E1
UniProt O77312 = biological target: UniProt O77312
UniProt O77375 = biological target: UniProt O77375
UniProt O96212 = biological target: UniProt O96212
UniProt Q8I0U7 = biological target: UniProt Q8I0U7
UniProt Q8I0V2 = biological target: UniProt Q8I0V2
UniProt Q8I291 = biological target: UniProt Q8I291
UniProt Q8I2F2 = biological target: UniProt Q8I2F2
UniProt Q8I3V8 = biological target: UniProt Q8I3V8
UniProt Q8I445 = biological target: UniProt Q8I445
UniProt Q8I4R5 = biological target: UniProt Q8I4R5
UniProt Q8I512 = biological target: UniProt Q8I512
UniProt Q8I535 = biological target: UniProt Q8I535
UniProt Q8I5E2 = biological target: UniProt Q8I5E2
UniProt Q8I5X8 = biological target: UniProt Q8I5X8
UniProt Q8I635 = biological target: UniProt Q8I635
UniProt Q8IAM0 = biological target: UniProt Q8IAM0
UniProt Q8IB78 = biological target: UniProt Q8IB78
UniProt Q8IBH7 = biological target: UniProt Q8IBH7
UniProt Q8IBH7, sequence (Q8IBH7 whole entry): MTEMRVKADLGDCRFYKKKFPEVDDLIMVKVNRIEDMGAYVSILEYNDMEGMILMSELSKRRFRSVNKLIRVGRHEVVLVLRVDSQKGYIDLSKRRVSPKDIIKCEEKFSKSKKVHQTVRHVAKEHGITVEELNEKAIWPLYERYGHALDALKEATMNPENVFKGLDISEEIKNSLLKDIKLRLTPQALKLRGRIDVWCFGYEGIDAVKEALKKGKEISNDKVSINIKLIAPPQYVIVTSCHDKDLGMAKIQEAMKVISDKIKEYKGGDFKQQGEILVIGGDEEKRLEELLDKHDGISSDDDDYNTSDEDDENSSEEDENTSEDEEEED

UniProt Q8IBK8 = biological target: UniProt Q8IBK8
UniProt Q8IBP8 = biological target: UniProt Q8IBP8
UniProt Q8ID85 = biological target: UniProt Q8ID85
UniProt Q8IDB0 = biological target: UniProt Q8IDB0
UniProt Q8IDS6 = biological target: UniProt Q8IDS6
UniProt Q8IDW1 = biological target: UniProt Q8IDW1
UniProt Q8IE81 = biological target: UniProt Q8IE81
UniProt Q8IEL1 = biological target: UniProt Q8IEL1
UniProt Q8IHR8 = biological target: UniProt Q8IHR8
UniProt Q8II11 = biological target: UniProt Q8II11
UniProt Q8IIB4 = biological target: UniProt Q8IIB4
UniProt Q8IIR9 = biological target: UniProt Q8IIR9
UniProt Q8IJ74 = biological target: UniProt Q8IJ74
UniProt Q8IJC6 = biological target: UniProt Q8IJC6
UniProt Q8IJI7 = biological target: UniProt Q8IJI7
UniProt Q8IJN8 = biological target: UniProt Q8IJN8
UniProt Q8IKA6 = biological target: UniProt Q8IKA6
UniProt Q8IKZ6 = biological target: UniProt Q8IKZ6
UniProt Q8IKZ8 = biological target: UniProt Q8IKZ8
UniProt Q8IL22 = biological target: UniProt Q8IL22
UniProt Q8IL53 = biological target: UniProt Q8IL53
UniProt Q8ILB6 = biological target: UniProt Q8ILB6
UniProt Q8ILH5 = biological target: UniProt Q8ILH5
UniProt Q8ILS0 = biological target: UniProt Q8ILS0
UniProt Q8ILW6 = biological target: UniProt Q8ILW6
UniProt Q8ILW6, sequence (Q8ILW6 whole entry): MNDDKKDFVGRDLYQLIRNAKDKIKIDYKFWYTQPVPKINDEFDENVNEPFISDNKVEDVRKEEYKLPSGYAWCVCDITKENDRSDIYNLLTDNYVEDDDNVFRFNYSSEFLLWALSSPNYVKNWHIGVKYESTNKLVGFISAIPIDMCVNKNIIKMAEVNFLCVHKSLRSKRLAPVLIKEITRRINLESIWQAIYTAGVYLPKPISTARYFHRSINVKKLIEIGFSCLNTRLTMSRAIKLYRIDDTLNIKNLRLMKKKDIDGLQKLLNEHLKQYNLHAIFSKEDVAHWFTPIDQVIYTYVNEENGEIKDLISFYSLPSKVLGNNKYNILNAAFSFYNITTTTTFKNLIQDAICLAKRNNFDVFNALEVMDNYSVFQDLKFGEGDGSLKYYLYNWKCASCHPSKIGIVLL

UniProt Q8ILY8 = biological target: UniProt Q8ILY8
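Note: native unpurified kinases from lysate captured on beads bearing immobilized kinase inhibitors, with bead-bound kinases quantified by mass spectrometry across compound doses.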

For `O=c1[nH]c2ccc(Cl)cc2c(NC2CN3CCC2CC3)c1-c1nc2ccccc2[nH]1` (stereo unspecified) [CHIR-124], the IC50 (UniProt C0H4K6) was greater than 20 µM, the IC50 (UniProt C0H4V4) was greater than 20 µM and the IC50 (UniProt C6KT23) was greater than 20 µM. It also gave an IC50 (UniProt C6KT34) greater than 20 µM, an IC50 (UniProt C6KT64) greater than 20 µM and an IC50 (UniProt C6KT96) greater than 20 µM. The IC50 (UniProt C6S3E1) was greater than 20 µM, the IC50 (UniProt O77312) was greater than 20 µM and the IC50 (UniProt O77375) was greater than 20 µM. The IC50 (UniProt O96212) was greater than 20 µM, the IC50 (UniProt Q8I0U7) was greater than 20 µM and the IC50 (UniProt Q8I0V2) was greater than 20 µM. For the same molecule, the IC50 (UniProt Q8I291) was greater than 20 µM, the IC50 (UniProt Q8I2F2) was greater than 20 µM and the IC50 (UniProt Q8I3V8) was greater than 20 µM. The IC50 (UniProt Q8I445) was greater than 20 µM, the IC50 (UniProt Q8I4R5) was greater than 20 µM and the IC50 (UniProt Q8I512) was greater than 20 µM. The IC50 (UniProt Q8I535) was less than 0.0823 µM, the IC50 (UniProt Q8I5E2) was greater than 20 µM and the IC50 (UniProt Q8I5X8) was greater than 20 µM. It also gave an IC50 (UniProt Q8I635) greater than 20 µM, an IC50 (UniProt Q8IAM0) greater than 20 µM and an IC50 (UniProt Q8IB78) greater than 20 µM. It also gave an IC50 (UniProt Q8IBH7) greater than 20 µM, an IC50 (UniProt Q8IBK8) greater than 20 µM and an IC50 (UniProt Q8IBP8) greater than 20 µM. It also gave an IC50 (UniProt Q8ID85) greater than 20 µM, an IC50 (UniProt Q8IDB0) greater than 20 µM and an IC50 (UniProt Q8IDS6) greater than 20 µM. It also gave an IC50 (UniProt Q8IDW1) greater than 20 µM, an IC50 (UniProt Q8IE81) greater than 20 µM and an IC50 (UniProt Q8IEL1) of 2.9 µM. For the same molecule, the IC50 (UniProt Q8IHR8) was greater than 20 µM, the IC50 (UniProt Q8II11) was less than 0.0823 µM and the IC50 (UniProt Q8IIB4) was greater than 20 µM. For the same molecule, the IC50 (UniProt Q8IIR9) was greater than 20 µM, the IC50 (UniProt Q8IJ74) was greater than 20 µM and the IC50 (UniProt Q8IJC6) was greater than 20 µM. It also gave an IC50 (UniProt Q8IJI7) greater than 20 µM, an IC50 (UniProt Q8IJN8) greater than 20 µM and an IC50 (UniProt Q8IKA6) greater than 20 µM. For the same molecule, the IC50 (UniProt Q8IKZ6) was greater than 20 µM, the IC50 (UniProt Q8IKZ8) was greater than 20 µM and the IC50 (UniProt Q8IL22) was greater than 20 µM. It also gave an IC50 (UniProt Q8IL53) greater than 20 µM, an IC50 (UniProt Q8ILB6) greater than 20 µM and an IC50 (UniProt Q8ILH5) greater than 20 µM. The IC50 (UniProt Q8ILS0) was greater than 20 µM, the IC50 (UniProt Q8ILW6) was greater than 20 µM and the IC50 (UniProt Q8ILY8) was greater than 20 µM.
